From US12528805B2, “Solid forms of emetine” (Acer Therapeutics, Inc., priority 2020, dated 2026)
Counter-ions that a name gives are not always drawn.

Legend:
[1] = Solubility screening by solvent addition technique (approximate solubility); assay type: physicochemical; settings: thermodynamic from solid; water; at ambient temperature; small, fine particles remained (Experiment 25)
[2] = Solid form stability on storage (XRPD re-analysis); assay type: physicochemical
Experimental: The solids were dried under vacuum at ambient temperature (about 23° C.) for 17 h. The solids on the XRPD plate were stored at 40° C./75% RH for 22 h then re-analyzed. Amorphous and a mixture of Compound I dihydrochloride Form 2 and Form 6 were obtained (Table 7).
The solids were isolated by filtration after a total of 27.5 h at 5° C. and washed with 0.6 mL of cold acetone or 3×0.6 mL of cold heptane. The solids were dried under vacuum at ambient temperature (about 23° C.) for 17 h. The solids on the XRPD plate were stored at 40° C./75% RH for 22 h then re-analyzed by XRPD. Results, which are summarized in Table 8, show mixtures of Compound I dihydrochloride Forms 5 and 6, 5, 2 and 1, and 2 were obtained.
1.0 mL of water was added to approximately 300 mg of Compound I dihydrochloride Form 1. The resulting mixture was magnetically stirred at 50° C. over about 15 min, then stirred at 50° C. for 0.25 h. The solution was polish filtered (0.45 μm PTFE filter) into a 2 mL push-cap vial and then stirred at 50° C. for 0.25 h, prior to cooling to 5° C. at 0.1° C./min. After 62 h at 5° C., the experiment was sub-sampled and the solid was analyzed by XRPD. The material on the XRPD plate was dried under vacuum at 35° C. under a stream of wet nitrogen (20-38% RH) for about 9 h and then re-analyzed by XRPD. The material on the XRPD plate was stored at 25° C./60% RH for 22 h and then re-analyzed by XRPD. After a total of 87 h at 5° C., solids were isolated by centrifugation (0.22 μm nylon filter) and analyzed by XRPD. The solids were air-dried at ambient temperature (about 22° C.) for 24 h.
Small-scale crystallization Experiment 7 was sub-sampled prior to ASA and after ASA was complete, with solids isolated by centrifugation (0.22 μm nylon filter) and analyzed by XRPD.
Approximately 10 g of Compound I dihydrochloride Form 1 was dissolved in 67 mL of ethanol:water 99:1 v/v at about 60° C. (initial concentration: 150 mg/mL). Polish filtration was carried out (0.2 μm PTFE filter). The solution was transferred to a 250 mL vessel at 60° C. and stirred at 50° C. (solution temperature) and 300 rpm for about 5 min. The solution was seeded with about 100 mg (1 wt. %) of Compound I dihydrochloride Form 2, isolated from small-scale crystallization Experiments 12 and 13, from example 4 above. The seed dissolved rapidly. Anti-solvent addition of 10 mL of heptane (1 volume) was carried out at 2 vol/h (Heptane content of 13%). The solution was re-seeded with a further 100 mg (1 wt. %) of Form 2, isolated from small-scale crystallization Experiment 12. The seed persisted and a slurry formed. The slurry was stirred at 50° C. for 1 h and then anti-solvent addition of 131 mL of heptane at 1.5 vol/h was carried out, to reach 60% heptane. […] An additional 2 volumes of ethanol:water 99:1 v/v was added at the beginning of the ASA to mobilize the slurry. Once ASA was complete, the slurry was cooled to 5° C. at 0.1° C./min. The experiment was sub-sampled after about 2 h at 5° C. The slurry was thick but mixing. After 3.5 h at 5° C., an additional 3.6 mL of water was added to increase the water content to 2% (ethanol:water:heptane ratio of 39:2:59 v/v/v). The experiment was sub-sampled again after 2 h at 5° C. with additional water. After a total of 10 h at 5° C., solids were isolated by filtration and washed with 2 volumes of cold (5° C.) ethanol:heptane 40:60 v/v. The solids were filtered and dried under vacuum at ambient temperature (about 21° C.) for 14.5 h, then analyzed by XRPD.

[3] = Dynamic vapor sorption (DVS); settings: for DVS uptake: 25° C.
[4] = stored at 40° C./75% RH for 22 h

CC[C@H]1CN2CCc3cc(OC)c(OC)cc3[C@@H]2C[C@@H]1C[C@H]1NCCc2cc(OC)c(OC)cc21 [Compound I dihydrochloride Form 1, (2S,3R,11bS)-2-(((R)-6,7-dimethoxy-1,2,3,4-tetrahydroisoquinolin-1-yl)methyl)-3-ethyl-9,10-dimethoxy-1,3,4,6,7,11b-hexahydro-2H-pyrido[2,1-a]isoquinoline dihydrochloride]
solubility [1]: > 200 mg/mL

CC[C@H]1CN2CCc3cc(OC)c(OC)cc3[C@@H]2C[C@@H]1C[C@H]1NCCc2cc(OC)c(OC)cc21 [Compound I dihydrochloride Form 2, (2S,3R,11bS)-2-(((R)-6,7-dimethoxy-1,2,3,4-tetrahydroisoquinolin-1-yl)methyl)-3-ethyl-9,10-dimethoxy-1,3,4,6,7,11b-hexahydro-2H-pyrido[2,1-a]isoquinoline dihydrochloride]
Solid form by XRPD after storage ([2]; stored at 40° C./75% RH for 22 h, dihydrochloride): maintained

CC[C@H]1CN2CCc3cc(OC)c(OC)cc3[C@@H]2C[C@@H]1C[C@H]1NCCc2cc(OC)c(OC)cc21 [Compound I dihydrochloride Form 6, (2S,3R,11bS)-2-(((R)-6,7-dimethoxy-1,2,3,4-tetrahydroisoquinolin-1-yl)methyl)-3-ethyl-9,10-dimethoxy-1,3,4,6,7,11b-hexahydro-2H-pyrido[2,1-a]isoquinoline dihydrochloride]
Solid form by XRPD after storage ([2]; storage at ambient conditions): maintained | Solid form by XRPD after storage ([2]; stored at 25° C./60% RH for 22 h): maintained

CC[C@H]1CN2CCc3cc(OC)c(OC)cc3[C@@H]2C[C@@H]1C[C@H]1NCCc2cc(OC)c(OC)cc21 [Compound I dihydrochloride Form 7B, (2S,3R,11bS)-2-(((R)-6,7-dimethoxy-1,2,3,4-tetrahydroisoquinolin-1-yl)methyl)-3-ethyl-9,10-dimethoxy-1,3,4,6,7,11b-hexahydro-2H-pyrido[2,1-a]isoquinoline dihydrochloride]
DVS uptake ([3]; between 20-70% RH, cycle 2 sorption, material of large-scale Experiment 4 dried under vacuum at about 20° C. for 17.5 h): 8.7% | DVS uptake ([3]; between 40-80% RH, cycle 1 sorption): about 3% | DVS uptake ([3]; between 80-90% RH, cycle 1 sorption): large uptake | Relative humidity of deliquescence ([3]; post-DVS XRPD: amorphous material was recovered): about 90 % RH

CC[C@H]1CN2CCc3cc(OC)c(OC)cc3[C@@H]2C[C@@H]1C[C@H]1NCCc2cc(OC)c(OC)cc21 [Compound I dihydrochloride Form 8, (2S,3R,11bS)-2-(((R)-6,7-dimethoxy-1,2,3,4-tetrahydroisoquinolin-1-yl)methyl)-3-ethyl-9,10-dimethoxy-1,3,4,6,7,11b-hexahydro-2H-pyrido[2,1-a]isoquinoline dihydrochloride]
Solid form by XRPD after storage ([2]; 1 h under ambient conditions): converted to Compound I dihydrochloride Form 2 | Solid form by XRPD after storage ([2]; 3 h under ambient conditions): converted to Form 2

CC[C@H]1CN2CCc3cc(OC)c(OC)cc3[C@@H]2C[C@@H]1C[C@H]1NCCc2cc(OC)c(OC)cc21 [Form 2 with a trace Form 1]
Solid form by XRPD after storage [2, 4]: Compound I dihydrochloride Form 2 was obtained

CC[C@H]1CN2CCc3cc(OC)c(OC)cc3[C@@H]2C[C@@H]1C[C@H]1NCCc2cc(OC)c(OC)cc21 [mixture of Form 5 and Form 6]
Solid form by XRPD after storage ([2]; storage at 5° C. for about 2 weeks): Conversion to Form 5 | Solid form by XRPD after storage [2, 4]: conversion back to Compound I dihydrochloride Form 5
